Data set [1] has as its system human blood platelet aggregation. The following applies: J.C.S. Chem. Comm., 375 (1978); cited from earlier work.
In data set [2] the test system is isolated cat coronary artery. The following applies: J.C.S. Chem. Comm., 375 (1978); cited from earlier work.
The subject of data set [3] is blood pressure. The data set is described as follows: BP (Hypotensive activity). The format is in vivo. The following applies: intravenous, allobarbital-anaesthetised dog. From the text: (§1) The results of standard laboratory tests are shown below in Table 1, wherein the various activities are shown relative to PGE1.
The compounds produce falls in blood pressure when administered intravenously to the allobarbital-anaesthetised dog.

Data set [4] has as its system diarrhoea. The data set is described as follows: Diarrhoea (Diarrhoea-producing activity). The following applies: diarrhoea in 50% of mice, oral. The format is in vivo.
Description: as §1
The compounds produce diarrhoea in 50% of mice by oral administration.

Data set [5] deals with uterine contraction. Nature of the data set: UCA (Uterine contraction activity). The format is in vivo, pregnant female rat. The following applies: for UCA (Uterine contraction activity), relative to PGE1: pregnant female rat, intravenous, 20th day of gestation.
Description: as §1
The compounds stimulate uterine contraction in the pregnant female rat when administered intravenously on the 20th day of gestation.
Moreover, other compounds of the present invention [prepared as hereafter described in the Examples] other than the above compounds for which results are given in Table 1 stimulate uterine contraction when administered intravenously to the pregnant female rat on the 20th day of gestation at doses of 0.2-100 μg/kg animal body weight.

Data set [6] relates to platelet-rich plasma of rats. Nature of the data set: PAI (Inhibitory activity on blood platelet aggregation), adenosine diphosphate-induced. The format is cell-based, rat. To be noted: 50% inhibition of ADP-induced aggregation.
The test system of data set [7] is gastric acid secretion. The data set is described as follows: GSI (Inhibitory activity on gastric acid secretion). The format is in vivo. The following applies: increase in gastric acid pH from 2.0-2.5 to at least 4.0 in 50% of pentagastrin-treated rats, perfused intravenously.
Description: as §1
The compounds produce an increase in gastric acid pH from 2.0-2.5 to at least 4.0 in 50% of pentagastrin-treated rats when perfused intravenously.

Data set [8] deals with stress ulceration. The data set is described as follows: GUI (Inhibitory activity on gastric ulceration), stress ulceration. The format is in vivo, rat. To be noted: stress ulceration of rats, oral, water bath 19° C. for 6 hours. The protocol: as §1
The compounds produce an inhibition of stress ulceration by oral administration in the stress ulceration of rats produced according to the method of Takagi and Okabe [Jap. J. Pharmc., 18, 9-18 (1968)], i.e. by soaking rats in a water bath at 19° C. for 6 hours.

Data set [9] relates to women two or three days before the expected date of menstruation. Nature of the data set: Clinical: beginning of menstruation. The format is in vivo, human. The procedure: One pessary containing 1 mg of (13E)-(6RS,9α,11α,15S)-6,9-epithio-11,15-dihydroxyprost-13-enoic acid methyl ester (prepared as described in Example 21) was administered vaginally one to five times at one- to three-hour intervals to fifteen women aged from twenty to forty years two or three days before the expected date of menstruation.
One pessary containing 0.5 mg of (13E)-(6RS,9α,11α,15R)-6,9-epithio-11,15-dihydroxy-16,16-dimethylprost-13-enoic acid methyl ester (prepared as described in Example 21) was administered vaginally one to three times at one- to three-hour intervals to three women aged twenty or twenty-one years two or three days before the expected date of menstruation.
One to three tablets containing 0.5 mg of (13E)-(6RS,9α,11α,15S)-6,9-epithio-11,15-dihydroxyprost-13-enoic acid methyl ester (prepared as described in Example 17) were administered orally to five women aged from twenty to twenty-two years two or three days before the expected date of menstruation.

Data set [10] in a line: LD50 (Acute toxicity tests). To be noted: mouse, in vivo, iv; injected intravenously into mice. The procedure:
The compounds are injected intravenously into mice.

The subject of data set [11] is women in the early stages of pregnancy. Nature of the data set: Clinical: termination of pregnancy. The format is in vivo, human. The procedure: One pessary containing 1 mg of (13E)-(6RS,9α,11α,15S)-6,9-epithio-11,15-dihydroxyprost-13-enoic acid methyl ester (prepared as described in Example 21) was administered vaginally two to five times at one- to three-hour intervals to fifteen women aged from twenty to forty years in the early stages of pregnancy.
One to three tablets containing 0.25 mg of (13E)-(6RS,9α,11α,15R)-6,9-epithio-11,15-dihydroxy-16,16-dimethylprost-13-enoic acid methyl ester (prepared as described in Example 17) were administered orally one to five times to seven women aged from twenty-five to thirty years in the early stages of pregnancy.

For data set [12], the system named is women in the expired stage of pregnancy. Nature of the data set: Clinical: induction of labour. The format is in vivo, human. The following applies: pessary 0.2 mg, vaginal, one to three times at one- to three-hour intervals; five women. The protocol:
One pessary containing 0.2 mg of (13E)-(6RS,9α,11α,15S)-6,9-epithio-11,15-dihydroxyprost-13-enoic acid methyl ester (prepared as described in Example 21) was administered vaginally one to three times at one- to three-hour intervals to five women aged from twenty to forty years in the expired stage of pregnancy.

Data set [13] has as its system artery. To be noted: cited from earlier work.
The test system of data set [14] is blood platelet aggregation of the human. The following applies: cited from earlier work.
For data set [15], the system named is blood platelets. To be noted: cited from earlier work.

Structures can show the parent of a compound that is named as a salt. Some results are limits rather than exact numbers.

As to `CCCCC[C@H](O)/C=C/[C@@H]1[C@H]2CC(CCCCC(=O)O)S[C@H]2C[C@H]1O` (stereo partly shown) [sodium salt], the “activity on human blood platelet aggregation” value in [1] is reported as “inhibitory activity on human blood platelet aggregation”. For the same molecule, in data set [2], the “activity on isolated cat coronary artery” value is listed as “vasoconstricting activity on isolated cat coronary artery”.
Regarding `CCCCC[C@H](O)/C=C/[C@@H]1[C@H]2C/C(=C/CCCC(=O)OC)O[C@H]2C[C@H]1O` [PGI2 methyl ester, reference compound], the “BP (Hypotensive activity), relative to PGE1” value (“BP … relative to PGE1” for short) in data set [3] was 20. Further, the “Diarrhoea (Diarrhoea-producing activity), relative to PGE1” value (from here on “Diarrhoea … relative to PGE1”) in data set [4] is given as less than 0.1. In data set [5], the “UCA (Uterine contraction activity), relative to PGE1” value (“UCA … relative to PGE1” for short) stood at 0.5. For the same molecule, the “PAI (Inhibitory activity on blood platelet aggregation), relative to PGE1” value in data set [6] was 85.
`CCCC[C@H](C)[C@H](O)/C=C/[C@@H]1[C@H]2CC(CCCCC(=O)OC)S[C@H]2C[C@H]1O` (mixture of isomers) [E, (13E)-(6RS,9α,11α,15S,16S)-6,9-epithio-11,15-dihydroxy-16-methylprost-13-enoic acid methyl ester]: the “BP … relative to PGE1” value in data set [3] came to 0.55. In addition, the “GSI (Inhibitory activity on gastric acid secretion), relative to PGE1” value in data set [7] is reported as less than 0.3. Besides, in data set [8], the “GUI (Inhibitory activity on gastric ulceration), relative to PGE1” value is less than 0.5. The “Diarrhoea … relative to PGE1” value in [4] amounted to 0.514. In [5], the “UCA … relative to PGE1” value is recorded as 27.3. Besides, the “PAI (Inhibitory activity on blood platelet aggregation), relative to PGE1” value in [6] stood at 0.21.
As a reminder, the LD50 is the dose at which mortality reaches 50%. Higher therefore signals a less toxic substance. In the case of `CCCCC[C@H](O)/C=C/[C@@H]1[C@H]2CC(CCCCC(=O)OC)S[C@H]2C[C@H]1O` (mixture of isomers) [A, (13E)-(6RS,9α,11α,15S)-6,9-epithio-11,15-dihydroxyprost-13-enoic acid methyl ester], in [3], the “BP … relative to PGE1” value is 0.2. Moreover, the “GSI (Inhibitory activity on gastric acid secretion), relative to PGE1” value in data set [7] is less than 0.1. Further, the “activity on human blood platelet aggregation” value in data set [1] is recorded as “inhibitory activity on human blood platelet aggregation”. Further, the beginning of menstruation result in data set [9] (one to three tablets 0.5 mg, oral, five women) is “confirmed in all the cases”; in [9] (pessary 1 mg, vaginal, one to five times, fifteen women), “confirmed in all the cases”. In addition, in data set [2], the “activity on isolated cat coronary artery” value is “vasoconstricting activity on isolated cat coronary artery”. Besides, in data set [8], the “GUI (Inhibitory activity on gastric ulceration), relative to PGE1” value is less than 0.5. Besides, in [4], the “Diarrhoea … relative to PGE1” value is on record as 0.072. In addition, the “UCA … relative to PGE1” value in data set [5] turned out to be 11.5. Further, the LD50 in data set [10] is 100 mg/kg. Further, the termination of pregnancy result in data set [11] (pessary 1 mg, vaginal, two to five times, fifteen women) is recorded as “confirmed in all the cases”. Also, the induction of labour result in data set [12] is “confirmed in all the cases”. Besides, the “PAI (Inhibitory activity on blood platelet aggregation), relative to PGE1” value in [6] is recorded as 0.03.
Take `CCCCC1([C@H](O)/C=C/[C@@H]2[C@H]3CC(CCCCC(=O)OC)S[C@H]3C[C@H]2O)CCC1` (stereo partly drawn) [C, (13E)-(6RS,9α,11α,15R)-6,9-epithio-11,15-dihydroxy-15-(1-butylcyclobutyl)-16,17,18,19,20-pentanorprost-13-enoic acid methyl ester]: the “BP … relative to PGE1” value in data set [3] was less than 0.1. Moreover, in [7], the “GSI (Inhibitory activity on gastric acid secretion), relative to PGE1” value is given as 0.3. In data set [8], the “GUI (Inhibitory activity on gastric ulceration), relative to PGE1” value is listed as less than 0.5. Also, the “Diarrhoea … relative to PGE1” value in [4] is recorded as less than 0.02. Moreover, the “UCA … relative to PGE1” value in data set [5] is on record as 15.8. The LD50 in data set [10] worked out at 100 mg/kg. Besides, the “PAI (Inhibitory activity on blood platelet aggregation), relative to PGE1” value in data set [6] was found to be 0.011.
As for `CCCCC[C@H](O)/C=C/[C@H]1[C@H](O)CC(=O)[C@@H]1CCCCCCC(=O)O` [PGE1, reference compound], the “BP … relative to PGE1” value in data set [3] is 1. For the same molecule, the “GSI (Inhibitory activity on gastric acid secretion), relative to PGE1” value in data set [7] is 1. In addition, the “Diarrhoea … relative to PGE1” value in [4] stood at 1. In addition, the “UCA … relative to PGE1” value in [5] is given as 1.
Take `CCCCC[C@H](O)/C=C/[C@@H]1[C@H]2CC(CCCCC(=O)O)S[C@H]2C[C@H]1O` (mixture of isomers) [B, (13E)-(6RS,9α,11α,15S)-6,9-epithio-11,15-dihydroxyprost-13-enoic acid]: the “BP … relative to PGE1” value in [3] stood at 0.2. In addition, in [7], the “GSI (Inhibitory activity on gastric acid secretion), relative to PGE1” value is less than 0.1. Also, the “activity on human blood platelet aggregation” value in data set [1] is “inhibitory activity on human blood platelet aggregation”. The “activity on isolated cat coronary artery” value in data set [2] was “vasoconstricting activity on isolated cat coronary artery”. For the same molecule, the “GUI (Inhibitory activity on gastric ulceration), relative to PGE1” value in [8] is listed as less than 0.5. Further, the “Diarrhoea … relative to PGE1” value in [4] was less than 0.1. Moreover, in data set [5] (rat, in vivo), the “stimulatory activity on uterine contraction (in words)” value was “selective strong stimulatory activity on uterine contraction”. Moreover, the “UCA … relative to PGE1” value in data set [5] is recorded as 10. The “PAI (Inhibitory activity on blood platelet aggregation), relative to PGE1” value in [6] came to 0.038.
For `CCCCC[C@H](O)/C=C/[C@@H]1[C@H]2C/C(=C/CCCC(=O)O)O[C@H]2C[C@H]1O` [PGI2, (5Z,13E)-(9α,11α,15S)-6,9-epoxy-11,15-dihydroxyprosta-5,13-dienoic acid], the “activity on the artery” value in data set [13] is “relaxing activity on the artery”. Also, the “inhibition of arachidonic acid-induced blood platelet aggregation” value in data set [14] is reported as “strongly inhibits”.
With `CCCCC(C)(C)[C@H](O)/C=C/[C@@H]1[C@H]2CC(CCCCC(=O)OC)S[C@H]2C[C@H]1O` (mixture of isomers) [D, (13E)-(6RS,9α,11α,15R)-6,9-epithio-11,15-dihydroxy-16,16-dimethylprost-13-enoic acid methyl ester], in data set [3], the “BP … relative to PGE1” value is given as less than 0.1. In [7], the “GSI (Inhibitory activity on gastric acid secretion), relative to PGE1” value is reported as less than 0.3. The beginning of menstruation entry in [9] (pessary 0.5 mg, vaginal, one to three times, three women) is on record as “confirmed in all the cases”. For the same molecule, the “GUI (Inhibitory activity on gastric ulceration), relative to PGE1” value in [8] is listed as less than 0.5. Moreover, the “Diarrhoea … relative to PGE1” value in data set [4] came to 0.095. Also, the “UCA … relative to PGE1” value in data set [5] turned out to be 23.1. The LD50 in data set [10] was 25 mg/kg. In addition, the termination of pregnancy entry in data set [11] (one to three tablets 0.25 mg, oral, one to five times, seven women) is on record as “confirmed in all the cases”. In addition, in [6], the “PAI (Inhibitory activity on blood platelet aggregation), relative to PGE1” value is on record as 0.006.
Regarding `CCCCC[C@H](O)/C=C/[C@H]1O[C@H]2C[C@H](O2)[C@@H]1C/C=C\CCCC(=O)O` [thromboxane A2], the “activity on the artery” value in data set [13] is given as “contracting activity on the artery”. In addition, the “activity on blood platelets” value in data set [15] was “aggregating activity on blood platelets”.

Values taken from patent US4367237A, “Prostacyclin analogues” (priority 1978, dated 1983).
